Laboratory results as given in patent US20230138393A1, “LINKING AMINO ACID SEQUENCES, MANUFACTURING METHOD THEREOF, AND USE THEREOF” (priority 2020, published 2023).
Entries after “also recorded” stand apart in the source; their conditions may differ. [ ]: non-standard residue; d: D form. The star is where a group is joined. FITC = O=C1OC2(c3ccc(O)cc3Oc3cc(O)ccc32)c2ccc(NC(=S)*)cc21; Dap = NC[C@H](N)C(=O)O

How the values were obtained:
TIP60 = TIP60 (Homo sapiens, UniProt Q92993); assay: Acetyltransferase assay with acetyl-CoA analogs and H4 (1-20) peptide (MS); conditions: TIP60 with H4 (1-20) peptide, mass spectrometric analysis
MYST2 = MYST2 (Homo sapiens, UniProt O95251); assay: as above; conditions: MYST2 with H4 (1-20) peptide, mass spectrometric analysis
[1] = Hydrolysis of acetyl CoA and fluoroacetyl CoA (DTNB); format: physicochemical; conditions: 10 μM, 100 mM Tris buffer (pH 7.2)
Method: Hydrolysis of Acetyl CoA and Fluoroacetyl CoA: The hydrolysis rate of acetyl-CoA and fluoroacetyl CoA were measured in a similar manner to reported procedures (Weeks A M et al., 2010, Biochemistry, 49:9269-9279; Wagner G R et al., 2017, Cell Metab., 25:823-837). Briefly, 10 μM of the acetyl or fluoroacetyl CoA was incubated in 100 mM Tris buffer mixed with 0.5 mM DTNB, pH 7.2. The increase in the solution's absorbance at 412 nm was recorded, as a result of the reaction between DTNB and the free thiol in the released CoA hydrolysis product. A CoA standard curve was generated by measuring the absorbance of serially diluted CoA stock (200 μM) in the same assay buffer.

GCN5 = GCN5 (Homo sapiens, UniProt Q92831); assay: Acetyltransferase assay with acetyl-CoA analogs and H3 (1-20) peptide (MS); conditions: GCN5 with H3 (1-20) peptide, mass spectrometric analysis
[2] = Bioorthogonality of the fluorine-thiol displacement reaction: incubation with glutathione or cysteine (1H NMR); format: physicochemical; conditions: 25 mM each, pH 8.5, 37° C., 24 h
Method: Bioorthogonality of the Fluorine-Thiol Displacement Reaction (FIG. 30) The common substrate 2-fluoro-N-phenethylacetamide (compound (3)) was dissolved in MeOD as a 10× stock solution (250 mM). Sixty microliter of the stock was mixed with another 60 μL of either the reduced glutathione or cysteine 10× stock solution (250 mM in D2O). The mixture was added with additional deuterated solvents (1:1 mix of deuterated sodium phosphate buffer and MeOD) to make a final volume of 600 μL (pH adjusted to 8.5). The resulting solution was incubated at 37° C. water bath for 24 h, and then analyzed by ^1H NMR spectroscopy.

[3] = Stability and reactivity of model substrates and probes in cell lysates; conditions: human, pH 8.5
[4] = Measurement of FTDR reaction kinetics; format: physicochemical; conditions: DMF/Tris buffer (70/30), pH 8.5, 37° C.; 40, 80, 160 mM; average of three experiments
Method: Measurement of Reaction Kinetics: Reaction kinetics were evaluated similarly to reported procedures (Addy P S et al., 2017, J. Am. Chem. Soc., 139:11670-11673; Sundhoro M et al., 2017, Angew. Chem. Int. Ed. Engl., 56:12117-12121.). Stock solutions of substrate (3) and nucleophiles were prepared in DMF, while TCEP stock (pH 7.4) was dissolved in H2O. Equal concentrations (40 mM, 80 mM, or 160 mM) of the substrate and the nucleophile (3,4,5-trimethoxybenzenethiol or 2,4,6-trimethoxybenzenethiol) were mixed in 40 μL of DMF/Tris buffer (70/30). Over excess amount of TCEP (100 mM, 200 mM, or 400 mM) was added, and the final pH of the mixture was adjusted to 8.5 to initiate the reaction at 37° C. Time dependent measurements were carried out by taking 2 μL of the reaction mixture at indicated time points (30 min, 60 min, 90 min, 120 min, 150 min, 180 min), and mixing it with 18 μL 0.5% TFA/ACN to quench the reaction. The samples were eventually analyzed by LC/MS and the concentrations of product and reactant were determined by comparing peak area ratios with those of the standard curves. […]; t: reaction time; [X]t: concentration of either reactant at time t).

in vitro = conditions: human, pH 8.5
DLD-1 cells [5] = conditions: 10 μM, 12 h
Method: Cell Viability Assay: Wild type DLD-1 cells were cultured in complete growth media (RPMI, 10% FBS and 1% penicillin/streptomycin) at 37° C./5% CO2. After harvesting, cells were placed onto 96-well flat bottom white plates at 10e4 cells/well, and were incubated overnight. […] The chemiluminescent signals from the control sample (treated with 0 μM peptides) were used as the 100% control. […] For DLD-1 cells, after confocal imaging for the penetration pathway studies, viability measurements were carried out similarly via directly mixing with the CellTiter-Glo reagent. Cells treated with vehicle groups were also analyzed and counted as the 100% control.

DLD-1 cells [6] = conditions: then 10 μM peptide 4 h; for Mean Intensity Ratio, no pathway blocker: DLD-1 cells pretreated with solvent vehicle only, normalized as 1; for Mean Intensity Ratio, Chlorpromazine / Mean Intensity Ratio, Cytochalasin D / Mean Intensity Ratio, Nystatin / Mean Intensity Ratio, NaClO3: DLD-1 cells, ratio to no blocker; for Mean Intensity Ratio, Chlorpromazine: 1 h 5 μg/mL chlorpromazine (clathrin-dependent endocytosis); for Mean Intensity Ratio, Cytochalasin D: 1 h 10 μg/mL cytochalasin D (actin polymerization); for Mean Intensity Ratio, Nystatin: 1 h 25 μg/mL nystatin (caveolin-mediated endocytosis); for Mean Intensity Ratio, NaClO3: 1 h 80 mM NaClO3 (proteoglycan synthesis)
Method: Images were analyzed with NIH ImageJ software. […] Particles in the extracellular matrix that the “analyze particle” function selected were manually deselected and removed from the data set (FIG. 58B).
After this, the FITC-labelled peptide analogues were added at a final concentration of 10 μM, and the mixture was incubated at 37° C./5% CO2 for 4 h. […] After another round of washing, cells were imaged in the buffer as aforementioned. Subsequent CellTiter-Glo viability measurements were also performed right after confocal imaging.

DLD-1 cells [7] = assay: Cell penetration assay of FITC-labelled Axin analogues (confocal imaging); format: cell-based; conditions: for cellular uptake by confocal fluorescence microscopy (in words): 10 μM; for Mean Intensity Ratio (cell penetration): 10 μM FITC-labelled peptide, 12 h, intracellular intensity of peptide 51 normalized as 1
Method: Cell Penetration Assay: DLD-1 cells were seeded on 35 mm optical dishes at 3e5 per well and were incubated overnight at 37° C./5% CO2. […] Cells were imaged in buffer mimicking the physiological conditions in the cytoplasm (20 mM HEPES, 110 mM KOAc, 5 mM NaOAc, 2 mM MgOAc, 1 mM EGTA, pH 7.3).

[8] = molecular target: T1, beta-catenin protein (Abcam, ab63175) (UniProt P35222 1-781, limits assumed); assay: ELISA; beta-catenin coated on plate
T1 construct: Bought protein coated on the ELISA plate; also called β-catenin; target protein β-catenin
T1 sequence (looked up): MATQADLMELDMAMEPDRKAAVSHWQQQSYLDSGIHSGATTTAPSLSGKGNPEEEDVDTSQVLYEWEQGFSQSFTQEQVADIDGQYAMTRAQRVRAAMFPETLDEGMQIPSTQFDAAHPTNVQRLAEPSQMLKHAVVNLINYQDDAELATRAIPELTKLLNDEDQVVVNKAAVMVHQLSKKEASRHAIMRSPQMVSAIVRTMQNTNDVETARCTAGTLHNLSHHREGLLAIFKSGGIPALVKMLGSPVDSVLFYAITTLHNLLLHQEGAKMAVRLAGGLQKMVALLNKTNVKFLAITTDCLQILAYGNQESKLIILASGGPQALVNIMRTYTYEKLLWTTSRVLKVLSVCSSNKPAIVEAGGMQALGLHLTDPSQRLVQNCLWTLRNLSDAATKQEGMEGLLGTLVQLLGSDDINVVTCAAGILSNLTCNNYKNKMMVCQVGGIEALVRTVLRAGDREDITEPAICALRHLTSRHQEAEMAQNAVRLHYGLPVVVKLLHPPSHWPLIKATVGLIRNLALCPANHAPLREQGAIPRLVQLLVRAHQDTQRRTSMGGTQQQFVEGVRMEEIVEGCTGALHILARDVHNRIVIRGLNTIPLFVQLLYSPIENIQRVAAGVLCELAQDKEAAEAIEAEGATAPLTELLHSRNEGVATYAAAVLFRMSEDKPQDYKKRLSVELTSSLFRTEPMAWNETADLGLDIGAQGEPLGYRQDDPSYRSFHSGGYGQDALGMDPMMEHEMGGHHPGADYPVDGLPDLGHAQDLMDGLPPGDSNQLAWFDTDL

MYST2, sequence (O95251 whole entry): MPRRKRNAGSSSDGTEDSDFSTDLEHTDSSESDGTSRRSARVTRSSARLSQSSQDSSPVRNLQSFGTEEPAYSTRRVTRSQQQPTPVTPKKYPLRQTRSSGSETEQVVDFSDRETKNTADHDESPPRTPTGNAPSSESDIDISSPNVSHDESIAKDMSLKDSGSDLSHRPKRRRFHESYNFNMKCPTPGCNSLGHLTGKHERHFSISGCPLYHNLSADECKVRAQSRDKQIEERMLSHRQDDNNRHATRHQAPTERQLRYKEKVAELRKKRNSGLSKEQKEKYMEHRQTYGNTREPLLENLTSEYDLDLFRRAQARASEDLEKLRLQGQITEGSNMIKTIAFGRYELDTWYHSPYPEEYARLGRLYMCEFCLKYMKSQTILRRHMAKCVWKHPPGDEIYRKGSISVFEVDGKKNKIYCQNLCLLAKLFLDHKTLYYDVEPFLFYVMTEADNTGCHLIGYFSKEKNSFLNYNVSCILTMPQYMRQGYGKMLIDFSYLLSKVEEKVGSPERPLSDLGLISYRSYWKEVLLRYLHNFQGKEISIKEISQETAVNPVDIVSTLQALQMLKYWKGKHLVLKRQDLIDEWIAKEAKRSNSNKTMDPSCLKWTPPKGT
TIP60, sequence (Q92993 whole entry): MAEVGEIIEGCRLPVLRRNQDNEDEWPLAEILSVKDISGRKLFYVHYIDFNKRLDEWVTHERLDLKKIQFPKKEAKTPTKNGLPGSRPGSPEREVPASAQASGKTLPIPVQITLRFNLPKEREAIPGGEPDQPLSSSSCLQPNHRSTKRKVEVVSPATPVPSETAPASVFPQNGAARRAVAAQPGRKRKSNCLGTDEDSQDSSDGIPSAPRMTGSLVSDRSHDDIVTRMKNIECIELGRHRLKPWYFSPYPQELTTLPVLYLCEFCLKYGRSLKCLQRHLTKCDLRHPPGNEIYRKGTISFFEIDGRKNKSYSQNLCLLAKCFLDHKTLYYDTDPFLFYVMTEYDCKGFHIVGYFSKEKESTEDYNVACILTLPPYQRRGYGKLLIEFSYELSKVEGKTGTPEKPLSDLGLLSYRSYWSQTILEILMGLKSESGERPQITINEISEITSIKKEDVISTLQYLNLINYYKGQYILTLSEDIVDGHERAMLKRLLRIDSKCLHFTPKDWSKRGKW
GCN5, sequence (Q92831 492-658 limits assumed): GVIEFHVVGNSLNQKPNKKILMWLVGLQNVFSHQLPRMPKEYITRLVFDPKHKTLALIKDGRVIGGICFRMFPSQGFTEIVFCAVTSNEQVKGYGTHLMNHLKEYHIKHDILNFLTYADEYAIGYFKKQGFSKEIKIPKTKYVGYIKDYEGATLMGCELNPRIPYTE

## CC(=O)SCCNC(=O)CCNC(=O)[C@H](O)C(C)(C)COP(=O)(O)OP(=O)(O)OC[C@H]1O[C@@H](n2cnc3c(N)ncnc32)[C@H](O)[C@@H]1OP(=O)(O)O [Ac-CoA, acetyl-CoA]
TIP60
  labelling of histone peptide substrate by acetyltransferase: successful acetyl or acetyl analog labelling
MYST2
  labelling of histone peptide substrate by acetyltransferase: successful acetyl or acetyl analog labelling
[1]
  pseudo-first-order rate constant of hydrolysis: 0.0002 s⁻¹
GCN5
  labelling of histone peptide substrate by acetyltransferase: successful acetyl or acetyl analog labelling

## CC(C)(COP(=O)(O)OP(=O)(O)OCC1OC(n2cnc3c(N)ncnc32)C(O)C1OP(=O)(O)O)[C@@H](O)C(=O)NCCC(=O)NCCSC(=O)CF (stereo partly shown) [F-Ac-CoA, fluoroacetyl-CoA]
TIP60
  labelling of histone peptide substrate by acetyltransferase: successful acetyl or acetyl analog labelling
MYST2
  labelling of histone peptide substrate by acetyltransferase: successful acetyl or acetyl analog labelling
[1]
  pseudo-first-order rate constant of hydrolysis: 0.0075 s⁻¹
GCN5
  labelling of histone peptide substrate by acetyltransferase: successful acetyl or acetyl analog labelling

## O=C(CF)NCCc1ccccc1 [Peptide 3]
[2]
  reactivity with cysteine: no reaction was observed; also recorded: stable
  reactivity with glutathione: no reaction was observed; also recorded: stable
[3]
  recovery at 14 h, 1 mM: 100%

## C#CCCC(=O)SCCNC(=O)CCNC(=O)[C@H](O)C(C)(C)COP(=O)(O)OP(=O)(O)OCC1OC(n2cnc3c(N)ncnc32)C(O)C1OP(=O)(O)O (stereo partly shown) [Peptide 4-PY-CoA, 4-pentynoyl CoA]
TIP60
  labelling of histone peptide substrate by acetyltransferase: failed to incorporate
MYST2
  labelling of histone peptide substrate by acetyltransferase: failed to incorporate
GCN5
  labelling of histone peptide substrate by acetyltransferase: failed to incorporate

## COc1cc(S)cc(OC)c1OC [Peptide 12]
[4]
  second order rate constant of FTDR reaction with (3) (2-fluoro-N-phenethylacetamide): (0.37±0.06)×10^−3 M^−1 S^−1

## COc1cc(OC)c(S)c(OC)c1 [Peptide 13]
[4]
  second order rate constant of FTDR reaction with (3) (2-fluoro-N-phenethylacetamide): (1.03±0.06)×10^−3 M^−1 S^−1
In vitro
  recovery at 14 h, 1 mM: 61.8%

## CC[C@H](C)[C@@H]1NC(=O)[C@@H](NC(=O)[C@H](CCC(N)=O)NC(=O)[C@@H]2CCCN2C(=O)[C@H](Cc2c[nH]c3ccccc23)NC(=O)[C@H](CCCNC(=N)N)NC(=O)COCCOCCNC(=S)Nc2ccc3c(c2)C(=O)OC32c3ccc(O)cc3Oc3cc(O)ccc32)CNC(=O)CSCc2cccc(c2)CSCC(=O)NC[C@@H](C(=O)N[C@@H](Cc2c[nH]cn2)C(=O)N[C@H](C(=O)N[C@@H](CCCNC(=N)N)C(=O)N[C@@H](CCCNC(=N)N)C(=O)N[C@H](C(=O)N[C@@H](Cc2c[nH]c3ccccc23)C(=O)N[C@@H](CCCNC(=N)N)C(N)=O)C(C)C)C(C)C)NC(=O)[C@H](CC(=O)O)NC(=O)[C@H](CC(C)C)NC1=O [Peptide 48]
DLD-1 cells [5]
  effect on cell viability: did not affect the viability
DLD-1 cells [6]
  Mean Intensity Ratio, no pathway blocker: 1.00 ± 0.04
  Mean Intensity Ratio, Chlorpromazine: 0.13 ± 0.01
  Mean Intensity Ratio, Cytochalasin D: 0.10 ± 0.01
  Mean Intensity Ratio, Nystatin: 1.16 ± 0.03
  Mean Intensity Ratio, NaClO3: 0.12 ± 0.01
DLD-1 cells [7]
  cellular uptake by confocal fluorescence microscopy (in words): significant cellular uptake
  Mean Intensity Ratio (cell penetration): 4.86±0.15

## CC[C@H](C)[C@@H]1NC(=O)[C@@H](NC(=O)[C@H](CCC(N)=O)NC(=O)[C@@H]2CCCN2C(=O)[C@H](Cc2c[nH]c3ccccc23)NC(=O)[C@H](CCCNC(=N)N)NC(=O)COCCOCCNC(=S)Nc2ccc3c(c2)C(=O)OC32c3ccc(O)cc3Oc3cc(O)ccc32)CNC(=O)CSCc2cccc(c2)CSCC(=O)NC[C@H](C(=O)N[C@@H](Cc2c[nH]cn2)C(=O)N[C@H](C(=O)N[C@@H](CCCNC(=N)N)C(=O)N[C@@H](CCCNC(=N)N)C(=O)N[C@H](C(=O)N[C@@H](Cc2c[nH]c3ccccc23)C(=O)N[C@@H](CCCNC(=N)N)C(N)=O)C(C)C)C(C)C)NC(=O)[C@H](CC(=O)O)NC(=O)[C@H](CC(C)C)NC1=O [Peptide 50]
DLD-1 cells [5]
  effect on cell viability: did not affect the viability
DLD-1 cells [6]
  Mean Intensity Ratio, no pathway blocker: 1.00 ± 0.02
  Mean Intensity Ratio, Chlorpromazine: 0.16 ± 0.01
  Mean Intensity Ratio, Cytochalasin D: 0.99 ± 0.02
  Mean Intensity Ratio, Nystatin: 0.17 ± 0.01
  Mean Intensity Ratio, NaClO3: 0.20 ± 0.01
DLD-1 cells [7]
  cellular uptake by confocal fluorescence microscopy (in words): significant cellular uptake
  Mean Intensity Ratio (cell penetration): 5.05±0.14

B1: FITC labelled fluoroacetamide containing L,L substrate (47), unstapled Axin-derived peptide analogue (peptide)
peptide: {FITC}-RWPQ[Dap](fluoroacetyl)ILD[Dap](fluoroacetyl)HVRRVWR-NH2
notes: also called peptide (47); unstapled peptide (47)
[8]
  EC50: ~300 nM
